{"source": "patent US20110009335A1", "about": "“Anticancer Treatments” (priority 2008, published 2011)", "key": {"[1]": {"tested_on": "CAKI-1 human renal tumor xenograft", "test": "Aplidine with sunitinib, CAKI-1 xenograft in athymic nude mice (Example 2)", "format": "in vivo", "conditions": "doses and schedules tested", "procedure": "(§1) Female athymic nude mice (Harlan Sprague Dawley, Madison, Wis.) were utilized for all experiments. Mice were implanted with tumor fragments or a cell suspension when mice were 5 weeks of age. Animals were housed in ventilated rack caging, 5 mice per cage, with food and water ad libitum. The mice were acclimated for 1 week prior to being implanted with tumor fragments or cell suspensions.\nCells from in vitro passage 4-20 were implanted SC into study mice: 5×10^6 cells/mouse in 0.2 ml 50% Matrigel/50% medium without antibiotics or serum, using a 23 G needle and 1 cc syringe. Bacterial cultures were performed on aliquots of the cells prepared for implantation.\n(§2) Tumor measurements were determined as disclosed in Example 1.\nBody weights were recorded on treatment days and when tumor sizes were measured. In those days wherein the two drugs were administered the same day, the combination therapy groups were treated by co-administering the two drugs at the same time, with no attempt to sequence the treatments. […]\n(§3) Tumor size measurements were recorded twice weekly from the treatment initiation until the termination of the study.\n(§4) Mean, standard deviation and standard error of the mean were determined for tumor volume for all animal groups at all assessments. […]"}, "[2]": {"tested_on": "MRI-H-121 human renal tumor xenograft", "test": "Aplidine with sunitinib, MRI-H-121 xenograft in athymic nude mice (Example 2)", "format": "in vivo", "conditions": "doses and schedules tested", "procedure": "as §1, §2\n(§5) Body weights were recorded on treatment days and when tumor sizes were measured. In those days wherein the two drugs were administered the same day, the combination therapy groups were treated by co-administering the two drugs at the same time, with no attempt to sequence the treatments.\n(§6) Aplidine was provided in the form of vials of lyophilized aplidine powder which was reconstituted in Cremophor EL/ethanol/water (CEW) 15/15/70 to a concentration of 0.5 mg/ml. The aplidine solution in CEW was diluted in 0.9% Saline to the dosing formulation concentrations, being the final proportion of CEW of 0.18/0.18/0.84. […]\nas §3, §4"}, "[3]": {"tested_on": "A498 human renal tumor xenograft", "test": "Aplidine with sunitinib, A498 xenograft in athymic nude mice (Example 2)", "format": "in vivo", "conditions": "doses tested; sunitinib 40 mg/kg", "procedure": "as §1, §2, §5, §6, §3, §4"}, "[4]": {"conditions": "mouse, in vivo", "experimental": "Body weight effects were determined by comparing each mouse body weight measurement with the initial body weight (first day of treatment).\nThe NCI activity criterion of body weight loss >20% was used to gauge compound toxicity.\nBody weight effects were determined by comparing each mouse body weight measurement with the initial body weight (first day of treatment). The NCI activity criterion of body weight loss >20% was used to gauge compound toxicity."}}, "data": [{"molecule": "CCN(CC)CCNC(=O)c1c(C)[nH]c(/C=C2\\C(=O)Nc3ccc(F)cc32)c1C", "note": "[sunitinib]", "values": [{"measurement": "antitumor activity as single agent (monotherapy)", "setting": "[1]", "result": "inactive"}, {"measurement": "antitumor activity as single agent (monotherapy)", "setting": "[2]", "result": "refractory"}, {"measurement": "antitumor activity as single agent (monotherapy)", "setting": "[3]", "result": "did not reach the NCI criteria"}, {"measurement": "effect on body weight / toxicity", "setting": "[4]", "result": "did not cause a significant decline in mean body weight"}]}]}
